{
  "source": "patent US20250228851A1",
  "about": "“ALLOSTERIC INHIBITOR COMPOUNDS FOR OVERCOMING CANCER RESISTANCE” (priority 2021, published 2025)",
  "key": {"[1]": {"system": "PH (Ph+ AKI sensitive culture)", "assay": "Proliferation by dye exclusion after three days, PH", "format": "cell-based, human", "protocol": "FIG. 3. […] Cells were exposed to increasing concentration of 2.5, 5 and 10 μM of Compound 16. The negative control cell lines Ph− ALL HP was irresponsive to increasing concentration of Compound 16 (up to 10 μM). […] All four cell lines were plated in duplicates at the indicated concentrations, and proliferation was assessed after three days by dye exclusion of viable cells. […] The sensitivity of Ph+ cells to Compound 16 underlines the involvement of BCR-ABL in the antiproliferative mechanism. Death induction of BV173 cells is well taken as an indication of the ability of such group of compounds to overcome resistance that is originated in non-mutational grounds. However, the ability overcome the resistant T315I-BCR-ABL mutant, as shown in the dose-dependent manner of KÖ (circles), might be indicative for a non-ATP competitive mechanism of action."}, "[2]": {"system": "Ba/F3 cells expressing p185-BCR-ABL", "assay": "XTT cell viability / proliferation, Ba/F3 expressing p185-BCR-ABL", "format": "cell-based, murine", "protocol": "(§1) • 1. Ba/F3 cells were obtained from the German Collection of Microorganisms and Cell Cultures (DSMZ, Braunschweig, Germany) and maintained in RPMI 1640 medium supplemented with 10% fetal calf serum (Invitrogen) containing 10 ng/ml of interleukin-3 (Cell Concepts, Umkirch, Germany). Ecotropic Phoenix cells and Rat-1 cells were cultured in Dulbecco's modified Eagle's medium supplemented with 10% fetal calf serum. GNF-2 (Sigma-Adrich, Steinheim, Germany) was dissolved in dimethyl sulfoxide and added at a final concentration of […]. Cell growth was assessed by dye exclusion using Trypan blue. Proliferation was assessed using the XTT proliferation kit (Roche, Mannheim, Germany), according to the manufacturer's instructions. • 2. Ba/F3: IL-3 dependent lymphatic murine pro B cell line. Ba/F3 cells expressing either p185-BCR-ABL1 (p185-BCR-ABL-Ba/F3) or p210-BCR-ABL (p210-BCR-ABL-Ba/F3). p185-BCR-ABL1 (activated kinases substitute for the IL-3 signaling and therefore render the cells IL3 independent. Ba/F3 cells expressing either p185-BCR-ABL (p185-Ba/F3) or p210-BCR-ABL (p210-Ba/F3). Ba/F3 cells obtained from the German Collection of Microorganisms and Cell Cultures (DSMZ, Braunschweig, Germany). • 3. Mutant transduced Ba/F3 cells (T315I-p185-BCR-ABL1 or T315I-p210-BCR-ABL1): Ba/F3 cells expressing either the mutated forms T315I-p185-BCR-ABL1 or T315I-p210-BCR-ABL1. • 4. WT-Sup-B15: A Ph+ ALL cell line harboring the p185-BCR-ABL. Sup-B15: established from the bone marrow of a child with acute lymphoblastic leukemia (B cell precursor ALL) in second relapse in 1984; described in the literature to carry the ALL-variant (m-BCR) of the BCR-ABL1 fusion gene (e1-a2) correct, because it results in the p185-BCR-ABL version. • 5. […] V617FJAK2 HEL: (Human erythroleukemia) is a growth factor independent erythroleukemic cell line established from the bone marrow of a patient with relapsed Hodgkin disease after autologous bone marrow transplantation (Martin P & Papayannopoulou T: Science 1982; 216:1233-1235). HEL cells display a block in differentiation at the level of common erythroid-megakaryocytic progenitor and have been commonly used as a model to study erythroid and megakaryocytic differentiation. • 7. Jurkat: an immortalized human T lymphocyte first derived from the peripheral blood of a child suffering from T cell leukemia. Jurkat cells are used to study acute T cell leukemia, T cell signaling, and the expression of various chemokine receptors susceptible to viral entry, particularly HIV.\nFIGS. 1A and 1B: Effects of Compound 16 on Ba/F3 cells expressing either p185-BCR-ABL or T315I-p185-BCR-ABL. Cells were exposed to increasing concentration of Compound 16 [empty vehicle (0.0 μM+IL3), 2.5, 5.0 and 10.0 μM]. […] Cell viability (CV) was assessed using the XTT method as described in the experimental part. The means±SD of triplicates from one representative experiment out of three performed are given.\nFIGS. 7A-C: Effects of Compound 16 on of Ba/F3 cells expressing WT-p185-BCR-ABL (FIG. 7A) and the mutant gatekeeper T315I-p185-BCR-ABL (FIG. 7B) by Compound 16. Cells were exposed to increasing concentrations of Compound 16."}, "[3]": {"system": "PINCO transfected Ba/F3 cells", "assay": "XTT cell viability, Ba/F3 transduced with empty vector (PINCO)", "format": "cell-based, murine", "conditions": "increasing concentration up to 10 μM", "protocol": "• 1. Ba/F3 cells were obtained from the German Collection of Microorganisms and Cell Cultures (DSMZ, Braunschweig, Germany) and maintained in RPMI 1640 medium supplemented with 10% fetal calf serum (Invitrogen) containing 10 ng/ml of interleukin-3 (Cell Concepts, Umkirch, Germany). Ecotropic Phoenix cells and Rat-1 cells were cultured in Dulbecco's modified Eagle's medium supplemented with 10% fetal calf serum. GNF-2 (Sigma-Adrich, Steinheim, Germany) was dissolved in dimethyl sulfoxide and added at a final concentration of […]. Cell growth was assessed by dye exclusion using Trypan blue. Proliferation was assessed using the XTT proliferation kit (Roche, Mannheim, Germany), according to the manufacturer's instructions. • 2. Ba/F3: IL-3 dependent lymphatic murine pro B cell line. Ba/F3 cells expressing either p185-BCR-ABL1 (p185-BCR-ABL-Ba/F3) or p210-BCR-ABL (p210-BCR-ABL-Ba/F3). p185-BCR-ABL1 (activated kinases substitute for the IL-3 signaling and therefore render the cells IL3 independent. Ba/F3 cells expressing either p185-BCR-ABL (p185-Ba/F3) or p210-BCR-ABL (p210-Ba/F3). Ba/F3 cells obtained from the German Collection of Microorganisms and Cell Cultures (DSMZ, Braunschweig, Germany). • 3. Mutant transduced Ba/F3 cells (T315I-p185-BCR-ABL1 or T315I-p210-BCR-ABL1): Ba/F3 cells expressing either the mutated forms T315I-p185-BCR-ABL1 or T315I-p210-BCR-ABL1. • 4. WT-Sup-B15: A Ph+ ALL cell line harboring the p185-BCR-ABL. Sup-B15: established from the bone marrow of a child with acute lymphoblastic leukemia (B cell precursor ALL) in second relapse in 1984; described in the literature to carry the ALL-variant (m-BCR) of the BCR-ABL1 fusion gene (e1-a2) correct, because it results in the p185-BCR-ABL version. • 5. […]\nFIG. 11: Antiproliferative effect of Compound 16 on PINCO transfected Ba/F3 cells. […] Proliferation status was determined by the metabolic activity of cells given by the reduction rate of XTT to formazan. […]"}, "[4]": {"system": "p185-Ba/F3 (WT-Ba/F3-p185-BCR-ABL)", "assay": "Proliferation by trypan blue exclusion, p185-Ba/F3", "format": "cell-based, murine", "conditions": "p185-Ba/F3, 1.0, 2.0 and 5.0 μM", "protocol": "• 1. Ba/F3 cells were obtained from the German Collection of Microorganisms and Cell Cultures (DSMZ, Braunschweig, Germany) and maintained in RPMI 1640 medium supplemented with 10% fetal calf serum (Invitrogen) containing 10 ng/ml of interleukin-3 (Cell Concepts, Umkirch, Germany). Ecotropic Phoenix cells and Rat-1 cells were cultured in Dulbecco's modified Eagle's medium supplemented with 10% fetal calf serum. GNF-2 (Sigma-Adrich, Steinheim, Germany) was dissolved in dimethyl sulfoxide and added at a final concentration of […]. Cell growth was assessed by dye exclusion using Trypan blue. Proliferation was assessed using the XTT proliferation kit (Roche, Mannheim, Germany), according to the manufacturer's instructions. • 2. Ba/F3: IL-3 dependent lymphatic murine pro B cell line. […]\nFIGS. 4A and 4B. […] All cell lines were treated with the indicated concentrations of Compound 16 for total period of five days and proliferation was determined by trypan blue exclusion of viable cells. […] For factor-independent growth, the number of viable cells was determined at day 3 by trypan blue dye exclusion."}, "Sup-B15 (p185-BCR-ABL)": {"system": "Sup-B15 (p185-BCR-ABL)", "assay": "XTT cell viability, Sup-B15 (WT-Sup-B15)", "format": "cell-based, human", "protocol": "as §1\nFIG. 2: Effect of Compound 16 on leukemia cell lines (Jurkat, Sup-B15 and BV173). Cell viablility (CV) was determined following incubation of the 1 m cells/ml of each cell line with increasing concentration of the Compound 16 [empty vehicle (0.0 μM+IL3), 2.5, 5.0 and 10.0 μM]. CV was measured by the XTT method. The means±SD of triplicates from one representative experiment out of three performed are given."}},
  "data": [
    {"smiles": "COc1ccc(C(=O)N2CCN(c3cc(Nc4ccc(OC(F)(F)F)cc4)ncn3)CC2)cc1OC", "note": "[Compound 16]", "values": [
      {"measurement": "IC50", "setting": "[1]", "result": "~2.1", "unit": "µM"},
      {"measurement": "cells inhibited", "setting": "[2]; 1 μM, within the first 24 hours", "result": 35, "unit": "%"},
      {"measurement": "viable cells", "setting": "[2]; 2 μM, T=48 hr", "result": 27.59, "unit": "%"},
      {"measurement": "cell proliferation affected", "setting": "[2]; 5 μM", "result": "~90", "unit": "%"},
      {"measurement": "time of maximum inhibition post application", "setting": "[2]; 5 μM, WT-p185- and T315I-p185-BCR-ABL Ba/F3", "result": 60, "unit": "h"},
      {"measurement": "antiproliferative response (in words)", "setting": "[3]", "result": "No effect"},
      {"measurement": "effect on proliferation (in words)", "setting": "[4]", "result": "inhibits the proliferation"},
      {"measurement": "cells inhibited", "setting": "Sup-B15 (p185-BCR-ABL); 10 μM", "result": "around 69%"},
      {"measurement": "IC50", "setting": "Sup-B15 (p185-BCR-ABL); Sup-B15, XTT, estimated", "result": "~4.5", "unit": "µM"},
      {"measurement": "antiproliferative response (in words)", "setting": "Sup-B15 (p185-BCR-ABL); Sup-B15 / WT-Sup-B15, increasing concentration up to 10 μM", "result": "potently inhibited the proliferation"}
    ]}
  ]
}
